# Patent US20130116227A1, “BIARYL AMIDE DERIVATIVE OR PHARMACEUTICALLY ACCEPTABLE SALT THEREOF” (DAINIPPON SUMITOMO PHARMA CO., LTD., priority 2010, published 2013)
# Target: T1, aldosterone receptor (Rattus norvegicus, UniProt P22199)
# T1 construct: centrifuged at 105,000 g for 30 minutes, and then a supernatant was collected as a renal soluble fraction; from tissue; host or cells: rat kidney (adrenalectomized rat), 105,000 g supernatant (cytosol)
# T1 sequence (P22199 1-981): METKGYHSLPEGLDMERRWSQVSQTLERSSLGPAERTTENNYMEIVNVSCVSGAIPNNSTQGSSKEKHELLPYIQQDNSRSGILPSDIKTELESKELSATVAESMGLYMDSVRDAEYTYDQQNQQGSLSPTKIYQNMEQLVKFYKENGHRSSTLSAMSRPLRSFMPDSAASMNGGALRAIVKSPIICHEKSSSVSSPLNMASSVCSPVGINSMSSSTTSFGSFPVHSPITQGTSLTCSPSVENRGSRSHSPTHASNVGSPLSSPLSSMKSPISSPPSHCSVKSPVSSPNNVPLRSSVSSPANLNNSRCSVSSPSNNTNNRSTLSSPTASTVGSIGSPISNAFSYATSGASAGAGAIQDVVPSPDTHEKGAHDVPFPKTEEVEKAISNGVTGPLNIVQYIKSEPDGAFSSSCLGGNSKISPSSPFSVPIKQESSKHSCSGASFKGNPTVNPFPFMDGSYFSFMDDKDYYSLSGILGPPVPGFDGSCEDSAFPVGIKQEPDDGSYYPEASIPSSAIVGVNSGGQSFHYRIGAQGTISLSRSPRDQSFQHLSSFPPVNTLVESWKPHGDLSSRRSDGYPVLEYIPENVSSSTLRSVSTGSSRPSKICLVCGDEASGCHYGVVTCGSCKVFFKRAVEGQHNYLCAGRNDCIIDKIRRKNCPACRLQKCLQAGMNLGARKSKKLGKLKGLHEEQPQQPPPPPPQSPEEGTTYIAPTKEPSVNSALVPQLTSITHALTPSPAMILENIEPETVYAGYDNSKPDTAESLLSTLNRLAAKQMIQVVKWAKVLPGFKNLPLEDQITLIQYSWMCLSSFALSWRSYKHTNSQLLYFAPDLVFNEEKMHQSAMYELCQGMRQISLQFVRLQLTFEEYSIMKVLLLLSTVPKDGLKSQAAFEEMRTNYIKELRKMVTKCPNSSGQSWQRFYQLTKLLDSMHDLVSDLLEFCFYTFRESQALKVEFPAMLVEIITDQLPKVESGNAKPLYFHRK
# Experiment: Binding inhibition test for aldosterone receptor ([3H]aldosterone, rat renal soluble fraction)
# Settings: [3H]aldosterone 2 nM, rat renal soluble fraction, in the presence of 2 μM RU-486, 4° C. about 18 hours; read-out: MR IC50
# Procedure: Binding Inhibition Test for Aldosterone Receptor
# A rat was layed open in flank regions (on both sides) to remove both adrenal glands. After stitching up the incision, the rat was returnd to a breeding cage again. After removing the kidney from the rat reared for about 3 to 5 days, the kidney was homogenized in 0.1 M Tris-HCl, 0.25M sucrose, 0.1M Na2MoO4 and 2 mM DTT buffer solution (pH7.4). The resultant was centrifuged at 105,000 g for 30 minutes, and then a supernatant was collected as a renal soluble fraction.
# The rat renal soluble fraction (0.5 to 1.5 mg), a labeled ligand [^3H] aldosterone (2 nM) and a test article were reacted in the presence of 2 μM RU-486 (glucocorticoid receptor antagonist) in 100 μL of total amounts at 4° C. for about 18 hours. Afterwards, to the reaction solution was added 50 μL of 5% dextran-coated activated charcoal, and the mixture was immingled, and then centrifuged at 3,000 g for 5 minutes. Then, a supernatant (100 μL) was collected and mixed with a liquid scintillator ACS-II (Amersham) (3.5 mL), and then analyzed its radioactivity by a liquid scintillation counter (manufactured by Packard, Tri Carb 2700TR). A non-specific binding was obtained by addition of 2 μM aldosterone to a reaction solution. […]
# Binding inhibition rate (%)=100−{(B−N)/(B0−N)}×100
# B: labeled ligand binding amounts in the presence of a test article and a labeled ligand
# B0: labeled ligand binding amounts in the absence of a test article
# N: labeled ligand binding amounts in the presence of excess aldosterone (2 μM)
# Test example 1 was carried out for compounds obtained in the Examples.
row,IC50 [nM],Structure (SMILES)
1,4100,COc1cc(NC(=O)c2ccc(-c3ncccc3C(F)(F)F)c(C)c2)ccc1S(N)(=O)=O [Example 279]
2,650,COc1ccc(-c2ccc(C(=O)Nc3ccc(S(N)(=O)=O)c(OC)c3)cc2CNCC(F)F)c(C(F)(F)F)c1 [Example 270]
3,820,COc1cc(NC(=O)c2ccc(-c3ccccc3C(F)(F)F)c(CN3CCC3)c2)ccc1S(N)(=O)=O [Example 94]
4,280,CS(=O)(=O)c1ccc(NC(=O)c2ccc(-c3ccccc3OC(F)(F)F)c(CNCc3ccccc3)c2)cc1 [Example 180]
5,520,CCc1ccccc1-c1ccc(C(=O)Nc2ccc(S(N)(=O)=O)c(OC)c2)cc1 [Example 56]
6,500,CS(=O)(=O)c1ccc(NC(=O)c2ccc(-c3ccccc3OC(F)(F)F)c(CN3CCCC(F)(F)C3)c2)cc1 [Example 144]
7,760,CN(Cc1cc(C(=O)Nc2ccc(S(C)(=O)=O)cc2)ccc1-c1ccccc1OC(F)(F)F)C1CCCCC1 [Example 202]
8,< 10000,COc1cc(NC(=O)c2ccc(-c3ccc(F)cc3C3CC3)c(CNCC(F)F)c2)ccc1S(N)(=O)=O [Example 470]
9,< 10000,COc1cc(NC(=O)c2ccc(-c3ccccc3CC(F)(F)F)c(CNCC(F)F)c2)ccc1S(N)(=O)=O [Example 438]
10,380,COc1cc(C(=O)Nc2ccc(-c3ccccc3C(F)(F)F)c(CN3CC[C@H](F)C3)c2)ccc1S(N)(=O)=O [Example 376]
11,240,COc1cc(NC(=O)c2ccc(-c3ccccc3OC(F)(F)F)c(N)c2)ccc1S(N)(=O)=O [Example 560]
12,460,CCC(CC)NCc1cc(NC(=O)c2ccc(S(N)(=O)=O)c(OC)c2)ccc1-c1ccccc1OC(F)(F)F [Example 365]
13,< 10000,CS(=O)(=O)c1ccc(NC(=O)c2ccc(-c3ccccc3OC(F)(F)F)c(CN3CCCOCC3)c2)cc1 [Example 163]
14,1200,COc1cc(C(=O)Nc2ccc(-c3ccccc3OC(F)(F)F)c(C)c2)ccc1S(N)(=O)=O [Example 499]
15,660,CS(=O)(=O)c1ccc(NC(=O)c2ccc(-c3ccccc3OC(F)(F)F)c(CN3CCOCC3)c2)cc1 [Example 162]
16,< 10000,COc1cc(NC(=O)c2ccc(-c3ccccc3OC(F)(F)C(F)F)c(CNCC(F)F)c2)ccc1S(N)(=O)=O [Example 478]
17,< 10000,CS(=O)(=O)c1ccc(NC(=O)c2ccc(-c3ccccc3OC(F)(F)F)c(CNC[C@H]3CCCO3)c2)cc1 [Example 147]
18,< 10000,CN(Cc1ccc(F)cc1)Cc1cc(C(=O)Nc2ccc(S(C)(=O)=O)cc2)ccc1-c1ccccc1OC(F)(F)F [Example 231]
19,< 10000,COc1cc(F)ccc1-c1ccc(C(=O)Nc2ccc(S(N)(=O)=O)c(OC)c2)cc1CNCC(F)F [Example 593]
20,5400,COc1cc(NC(=O)c2ccc(-c3cccc4cccnc34)c(C)c2)ccc1S(N)(=O)=O [Example 537]
21,360,COc1cc(C(=O)Nc2ccc(-c3ccccc3C(F)(F)F)c(CN3CCSCC3)c2)ccc1S(N)(=O)=O [Example 387]
22,450,COc1cc(C(=O)Nc2ccc(-c3ccccc3C(F)(F)F)c(CN3CCC(F)CC3)c2)ccc1S(N)(=O)=O [Example 392]
23,470,COc1cc(C(=O)Nc2ccc(-c3ccccc3N3CCCCC3)c(C)c2)ccc1S(N)(=O)=O [Example 342]
24,< 10000,COc1cc(NC(=O)c2ccc(-c3cc(F)ccc3Cl)c(CNCC(F)F)c2)ccc1S(N)(=O)=O [Example 457]
25,22,COc1cc(NC(=O)c2ccc(-c3ccccc3OC(F)(F)F)c(CN(C)C3CC3)c2)ccc1S(N)(=O)=O [Example 294]
26,150,COc1cc(NC(=O)c2ccc(-c3ccccc3OC(F)(F)F)c(CN3CCCOCC3)c2)ccc1S(N)(=O)=O [Example 303]

row,IC50 [nM],Structure (SMILES)
1,130,COCCNCc1cc(NC(=O)c2ccc(S(N)(=O)=O)c(OC)c2)ccc1-c1ccccc1C(F)(F)F [Example 357]
2,< 1000,COc1cc(NC(=O)c2ccc(-c3ccccc3-c3cccs3)cc2)ccc1S(N)(=O)=O [Example 42]
3,< 10000,COCc1cc(NC(=O)c2ccc(S(N)(=O)=O)c(OC)c2)ccc1-c1cccnc1C1CC1 [Example 545]
4,370,Cn1ccnc1CNCc1cc(C(=O)Nc2ccc(S(C)(=O)=O)cc2)ccc1-c1ccccc1OC(F)(F)F [Example 218]
5,2900,Cn1nccc1CNCc1cc(C(=O)Nc2ccc(S(C)(=O)=O)cc2)ccc1-c1ccccc1OC(F)(F)F [Example 520]
6,540,COCCNCc1cc(NC(=O)c2ccc(S(N)(=O)=O)c(OC)c2)ccc1-c1ccccc1OC(F)(F)F [Example 364]
7,400,CS(=O)(=O)c1ccc(NC(=O)c2ccc(-c3ccccc3OC(F)(F)F)c(CN3CCSCC3)c2)cc1 [Example 136]
8,190,COc1cc(NC(=O)c2ccc(-c3ccccc3OC(F)(F)F)c(CN3CCCCC3)c2)ccc1S(N)(=O)=O [Example 297]
9,350,COc1cc(NC(=O)c2ccc(-c3ccccc3C(F)(F)F)c(C)c2)ccc1S(N)(=O)=O [Example 7]
10,< 10000,COc1cc(NC(=O)c2ccc(-c3ccccc3C(C)(F)F)c(CNCC(F)F)c2)ccc1S(N)(=O)=O [Example 469]
11,270,COc1cc(NC(=O)c2ccc(-c3ccccc3OC(F)(F)F)c(CNc3nnn[nH]3)c2)ccc1S(N)(=O)=O [Example 293]
12,1200,COc1cc(C(=O)Nc2ccc(-c3ccccc3NC(C)C)c(C)c2)ccc1S(N)(=O)=O [Example 351]
13,470,Cn1ccc(CNCc2cc(C(=O)Nc3ccc(S(C)(=O)=O)cc3)ccc2-c2ccccc2OC(F)(F)F)n1 [Example 153]
14,2200,CS(=O)(=O)c1ccc(NC(=O)c2ccc(-c3ccccc3OC(F)(F)F)c(CNc3ncccn3)c2)cc1 [Example 526]
15,390,COc1cc(NC(=O)c2ccc(-c3ccccc3OC(F)(F)C(F)F)cc2)ccc1S(N)(=O)=O [Example 40]
16,< 10000,COc1cc(NC(=O)c2ccc(-c3ccccc3OC3CC3)c(CO)c2)ccc1S(N)(=O)=O [Example 590]
17,< 10000,COc1cc(NC(=O)c2ccc(-c3ccc(C(F)(F)F)cc3Cl)c(CNCC(F)F)c2)ccc1S(N)(=O)=O [Example 460]
18,> 10000,COc1cccc(NC(=O)c2ccc(-c3ccccc3)c(CN3CCCCC3)c2)c1 [compound 1]
19,< 10000,CCOC(=O)Nc1cc(C(=O)Nc2ccc(S(N)(=O)=O)c(OC)c2)ccc1-c1ccccc1CC [Example 581]
20,910,CS(=O)(=O)c1ccc(NC(=O)c2ccc(-c3ccccc3OC(F)(F)F)c(CN[C@H]3CCCc4ccccc43)c2)cc1 [Example 211]
21,< 10000,CCC(C)(C)NCc1cc(C(=O)Nc2ccc(S(C)(=O)=O)cc2)ccc1-c1ccccc1OC(F)(F)F [Example 206]
22,500,COc1cc(NC(=O)c2ccc(-c3ccccc3C(F)(F)F)cc2)ccc1S(N)(=O)=O [Example 10]
23,190,COc1cc(NC(=O)c2ccc(-c3ccccc3C(F)(F)F)c(OCCOCc3ccccc3)c2)ccc1S(N)(=O)=O [Example 109]
24,140,COc1ccc(-c2ccc(C(=O)Nc3ccc(S(N)(=O)=O)c(OC)c3)cc2CO)c(C(F)(F)F)c1 [Example 128]
25,< 10000,CS(=O)(=O)c1ccc(NC(=O)c2ccc(-c3ccccc3OC(F)(F)F)c(CN3CC(F)(F)C3)c2)cc1 [Example 171]
26,550,CCOC(=O)c1ccccc1-c1ccc(C(=O)Nc2ccc(S(N)(=O)=O)c(OC)c2)cc1 [Example 20]

# Same assay, conditions: read-out: Inhibition rates (%) in 100 μM
row,inhibition at 100 µM [%],Structure (SMILES)
1,7,COc1cccc(NC(=O)c2ccc(-c3ccccc3)c(CN3CCCCC3)c2)c1 [compound 1]
